Results taken from patent US4409210A, “Antibiotic compound” (priority 1982, dated 1983).
≈ marks a conversion by molar mass, not a printed value.

Columns and labels:
Type in all cases: cell-based
[1] = tested on: Clostridium acidiurici A9560; assay: MIC, serial two-fold dilution method (anaerobic); conditions: Gottschalkia acidurici; Clostridium acidiurici A9560; GAM agar medium; inoculum 10^7-10^8; read-out: minimum inhibitory concentration (MIC)
[2] = tested on: Clostridium chauvoei A9561; assay: MIC, serial two-fold dilution method (anaerobic); conditions: Clostridium chauvoei A9561; GAM agar medium; inoculum 10^7-10^8; read-out: minimum inhibitory concentration (MIC)
Method: (§1) The minimum inhibitory concentration (MIC) of Bu-2517 was determined for a variety of aerobic and anaerobic bacteria by the serial two-fold dilution method using a multi-inoculating apparatus. Mueller-Hinton agar was generally used for aerobic bacteria, GC medium (Eiken) for fastidious aerobic organisms such as streptococci, Neisseria and Haemophilus species, and GAM agar medium (Nissui) for anaerobic bacteria. The inoculum size was adjusted to 10^6 CFU/ml for streptococci, Neisseria and Haemophilus species, 10^4 for other aerobic bacteria and 10^7 -10^8 for all anaerobic organisms. Amphomycin, ampicillin, chloramphenicol, clindamycin, erthromycin, kanamycin and vancomycin were used as reference antibiotics.

[3] = tested on: Clostridium difficile A21675; assay: MIC, serial two-fold dilution method (anaerobic); conditions: Clostridioides difficile; Clostridium difficile A21675; GAM agar medium; inoculum 10^7-10^8; read-out: minimum inhibitory concentration (MIC)
Method: as §1

[4] = tested on: Clostridium difficile A21972; assay: MIC, serial two-fold dilution method (anaerobic); conditions: Clostridioides difficile; Clostridium difficile A21972; GAM agar medium; inoculum 10^7-10^8; read-out: minimum inhibitory concentration (MIC)
Method: as §1

[5] = tested on: Clostridium septicum A21869; assay: MIC, serial two-fold dilution method (anaerobic); conditions: Clostridium septicum A21869; GAM agar medium; inoculum 10^7-10^8; read-out: minimum inhibitory concentration (MIC)
Method: as §1

[6] = tested on: Clostridium cylindrosporum A9562; assay: MIC, serial two-fold dilution method (anaerobic); conditions: Clostridium cylindrosporum A9562; GAM agar medium; inoculum 10^7-10^8; read-out: minimum inhibitory concentration (MIC)
[7] = tested on: Clostridium perfringens A9635; assay: microbe, parasite or virus in culture; conditions: Clostridium perfringens, A9635, read-out: minimum inhibitory concentration (MIC)
[8] = tested on: Clostridium perfringens A22787; assay: microbe, parasite or virus in culture; conditions: Clostridium perfringens, A22787, read-out: minimum inhibitory concentration (MIC)
[9] = tested on: Clostridium ramosum A21970; assay: MIC, serial two-fold dilution method (anaerobic); conditions: Thomasclavelia ramosa; Clostridium ramosum A21970; GAM agar medium; inoculum 10^7-10^8; read-out: minimum inhibitory concentration (MIC)
[10] = tested on: Propionibacterium acnes A21933; assay: MIC, serial two-fold dilution method (anaerobic); conditions: Cutibacterium acnes; Propionibacterium acnes A21933; GAM agar medium; inoculum 10^7-10^8; read-out: minimum inhibitory concentration (MIC)
[11] = tested on: Propionibacterium acnes A21953; assay: MIC, serial two-fold dilution method (anaerobic); conditions: Cutibacterium acnes; Propionibacterium acnes A21953; GAM agar medium; inoculum 10^7-10^8; read-out: minimum inhibitory concentration (MIC)
[12] = tested on: Propionibacterium acnes A22650; assay: MIC, serial two-fold dilution method (anaerobic); conditions: Cutibacterium acnes; Propionibacterium acnes A22650; GAM agar medium; inoculum 10^7-10^8; read-out: minimum inhibitory concentration (MIC)
[13] = tested on: Peptostreptococcus anaerobius A21905; assay: MIC, serial two-fold dilution method (anaerobic); conditions: Peptostreptococcus anaerobius A21905; GAM agar medium; inoculum 10^7-10^8; read-out: minimum inhibitory concentration (MIC)
[14] = tested on: Peptostreptococcus intermedius A21881; assay: MIC, serial two-fold dilution method (anaerobic); conditions: Peptostreptococcus intermedius A21881; GAM agar medium; inoculum 10^7-10^8; read-out: minimum inhibitory concentration (MIC)
[15] = tested on: Peptococcus magnas A21676; assay: MIC, serial two-fold dilution method (anaerobic); conditions: Peptococcus magnas A21676; GAM agar medium; inoculum 10^7-10^8; read-out: minimum inhibitory concentration (MIC)
[16] = tested on: Bacteroides fragilis CUH-9; assay: MIC, serial two-fold dilution method (anaerobic); conditions: CUH9; Bacteroides fragilis CUH-9; GAM agar medium; inoculum 10^7-10^8; read-out: minimum inhibitory concentration (MIC)
[17] = tested on: Bacteroides fragilis CUH-24; assay: MIC, serial two-fold dilution method (anaerobic); conditions: CUH24; Bacteroides fragilis CUH-24; GAM agar medium; inoculum 10^7-10^8; read-out: minimum inhibitory concentration (MIC)
[18] = tested on: Bacteroides fragilis A20926; assay: MIC, serial two-fold dilution method (anaerobic); conditions: Bacteroides fragilis A20926; GAM agar medium; inoculum 10^7-10^8; read-out: minimum inhibitory concentration (MIC)
[19] = tested on: Bacteroides fragilis A20928-1; assay: MIC, serial two-fold dilution method (anaerobic); conditions: A209281; Bacteroides fragilis A20928-1; GAM agar medium; inoculum 10^7-10^8; read-out: minimum inhibitory concentration (MIC)
[20] = tested on: Bacteroides fragilis A20929; assay: MIC, serial two-fold dilution method (anaerobic); conditions: Bacteroides fragilis A20929; GAM agar medium; inoculum 10^7-10^8; read-out: minimum inhibitory concentration (MIC)
[21] = tested on: Bacteroides fragilis A21900; assay: MIC, serial two-fold dilution method (anaerobic); conditions: Bacteroides fragilis A21900; GAM agar medium; inoculum 10^7-10^8; read-out: minimum inhibitory concentration (MIC)
[22] = tested on: Bacteroides fragilis A22053; assay: MIC, serial two-fold dilution method (anaerobic); conditions: Bacteroides fragilis A22053; GAM agar medium; inoculum 10^7-10^8; read-out: minimum inhibitory concentration (MIC)
[23] = tested on: Bacteroides fragilis A22533; assay: MIC, serial two-fold dilution method (anaerobic); conditions: Bacteroides fragilis A22533; GAM agar medium; inoculum 10^7-10^8; read-out: minimum inhibitory concentration (MIC)
[24] = tested on: Bacteroides fragilis A22695; assay: MIC, serial two-fold dilution method (anaerobic); conditions: Bacteroides fragilis A22695; GAM agar medium; inoculum 10^7-10^8; read-out: minimum inhibitory concentration (MIC)
[25] = tested on: Bacteroides ovatus A22400; assay: MIC, serial two-fold dilution method (anaerobic); conditions: Bacteroides ovatus A22400; GAM agar medium; inoculum 10^7-10^8; read-out: minimum inhibitory concentration (MIC)
[26] = tested on: Fusobacterium necrophorum A20013; assay: MIC, serial two-fold dilution method (anaerobic); conditions: Fusobacterium necrophorum A20013; GAM agar medium; inoculum 10^7-10^8; read-out: minimum inhibitory concentration (MIC)
[27] = tested on: Fusobacterium nucleatum A21906; assay: MIC, serial two-fold dilution method (anaerobic); conditions: Fusobacterium nucleatum A21906; GAM agar medium; inoculum 10^7-10^8; read-out: minimum inhibitory concentration (MIC)
[28] = tested on: Fusobacterium varium ATCC 8501; assay: MIC, serial two-fold dilution method (anaerobic); conditions: ATCC8501; Fusobacterium varium ATCC 8501; GAM agar medium; inoculum 10^7-10^8; read-out: minimum inhibitory concentration (MIC)
[29] = tested on: Veillonella alcalescens A21914-1; assay: MIC, serial two-fold dilution method (anaerobic); conditions: Veillonella parvula, A219141; Veillonella alcalescens A21914-1; GAM agar medium; inoculum 10^7-10^8; read-out: minimum inhibitory concentration (MIC)
[30] = tested on: Veillonella parvula A20010; assay: MIC, serial two-fold dilution method (anaerobic); conditions: Veillonella parvula A20010; GAM agar medium; inoculum 10^7-10^8; read-out: minimum inhibitory concentration (MIC)

## CCC[C@@H]1C[C@@H](C(=O)N[C@@H]([C@H]2O[C@H](SC)[C@H](O)[C@@H](O)[C@H]2O)[C@H](C)Cl)N(C)C1 [Clindamycin]
[1]
  MIC: 0.8 µg/mL (≈ 1.88 µM)
[2]
  MIC: 0.025 µg/mL (≈ 0.0588 µM)
[3]
  MIC: 100 µg/mL (≈ 235 µM)
[4]
  MIC: 0.025 µg/mL (≈ 0.0588 µM)
[5]
  MIC: 0.8 µg/mL (≈ 1.88 µM)
[6]
  MIC: 0.8 µg/mL (≈ 1.88 µM)
[7]
  MIC: 0.025 µg/mL (≈ 0.0588 µM)
[8]
  MIC: 50 µg/mL (≈ 118 µM)
[9]
  MIC: 0.025 µg/mL (≈ 0.0588 µM)
[10]
  MIC: 0.8 µg/mL (≈ 1.88 µM)
[11]
  MIC: 0.8 µg/mL (≈ 1.88 µM)
[12]
  MIC: 0.1 µg/mL (≈ 0.235 µM)
[13]
  MIC: 0.2 µg/mL (≈ 0.471 µM)
[14]
  MIC: 0.2 µg/mL (≈ 0.471 µM)
[15]
  MIC: 0.05 µg/mL (≈ 0.118 µM)
[16]
  MIC: 50 µg/mL (≈ 118 µM)
[17]
  MIC: > 100 µg/mL
[18]
  MIC: 0.025 µg/mL (≈ 0.0588 µM)
[19]
  MIC: 0.025 µg/mL (≈ 0.0588 µM)
[20]
  MIC: 3.1 µg/mL (≈ 7.29 µM)
[21]
  MIC: 1.6 µg/mL (≈ 3.76 µM)
[22]
  MIC: 0.2 µg/mL (≈ 0.471 µM)
[23]
  MIC: 0.025 µg/mL (≈ 0.0588 µM)
[24]
  MIC: 0.1 µg/mL (≈ 0.235 µM)
[25]
  MIC: 6.3 µg/mL (≈ 14.8 µM)
[26]
  MIC: 12.5 µg/mL (≈ 29.4 µM)
[27]
  MIC: 1.6 µg/mL (≈ 3.76 µM)
[28]
  MIC: 1.6 µg/mL (≈ 3.76 µM)
[29]
  MIC: 0.013 µg/mL (≈ 0.0306 µM)
[30]
  MIC: 0.4 µg/mL (≈ 0.941 µM)
